In patent publication US20040254162A1, “Oxazolidinone derivatives as antimicrobials” (priority 2001, published 2004):
Converted amounts (≈) assume the structure as drawn. Read-outs that look alike come from different tables or passages of the source.

Experiments:
[1] = test system: MRSA 562; test: In vivo activity against MRSA 562 (ED50); design: species or system Methicillin Resistant Staphylococcus aureus; details: PO; MRSA 562 infection
[2] = test system: Fusobacterium montiferum; test: Agar dilution MIC, anaerobes; format: cell-based; details: Fusobacterium, single isolates, anaerobic agar dilution; read-out: MIC Fusobacterium montiferum
[3] = test system: Strep. pyog. ATCC 19615; test: MIC, agar incorporation method; details: Streptococcus pyogenes, ATCC19615, read-out: MIC S. pyogenes 19615
[4] = test system: Porphyromonas asaccharolytica; test: Agar dilution MIC, anaerobes; format: cell-based; details: Porphyromonas asaccharolytica; single isolate, anaerobic agar dilution; read-out: MIC Porphyromonas asaccharolytica
[5] = test system: Porphyromonas gingivalis; test: Agar dilution MIC, anaerobes; format: cell-based; details: Porphyromonas gingivalis; single isolate, anaerobic agar dilution; read-out: MIC Porphyromonas gingivalis
[6] = test system: MRSA 562; test: MIC, agar incorporation method; details: Staphylococcus aureus, MRSA
[7] = test system: Clostridium camis; test: Agar dilution MIC, anaerobes; format: cell-based; details: Clostridium; single isolates, anaerobic agar dilution; read-out: MIC Clostridium camis
[8] = test system: Mycobacterium avium intracellulare; test: Agar dilution method, mycobacteria; format: cell-based
[9] = test system: clinically relevant gram positive pathogens; details: nearly all clinically relevant gram positive pathogens; cited from earlier work
[10] = test system: S. aureus ATCC 25923; test: MIC, agar incorporation method; details: Staphylococcus aureus, ATCC25923, read-out: MIC S. aureus 25923
[11] = test system: Prevotella bivia; test: Agar dilution MIC, anaerobes; format: cell-based; details: Prevotella bivia; single isolate, anaerobic agar dilution; read-out: MIC Prevotella bivia
[12] = test system: Peptostreptococcus micros; test: Agar dilution MIC, anaerobes; format: cell-based; details: single isolates, anaerobic agar dilution

Question: Which “ED50 (mg/kg body weight) PO” value [1] does the source give for `CC(=O)NC[C@H]1CN(c2ccc(N3CCOCC3)c(F)c2)C(=O)O1` [Linezolid] here?
Answer: 4.56 mg/kg body weight

Question: What about the MIC [2] of the same compound?
Answer: 0.25 µg/mL (≈ 0.741 µM)

Question: And the MIC [3]?
Answer: 2 µg/mL (≈ 5.93 µM)

Question: What about the MIC [4] of the same compound?
Answer: 1 µg/mL (≈ 2.96 µM)

Question: And the MIC [5]?
Answer: 1 µg/mL (≈ 2.96 µM)

Question: What about the MIC [6] of the same compound?
Answer: 2 µg/mL (≈ 5.93 µM)

Question: And the MIC ([6]; read-out: MIC MRSA 562)?
Answer: 2 µg/mL (≈ 5.93 µM)

Question: What about the MIC [7] of the same compound?
Answer: 2 µg/mL (≈ 5.93 µM)

Question: What about the G.M. [8] of the same compound?
Answer: 20.587 µg/mL

Question: What about the MIC50 ([8]; Mycobacterium avium, 504 h, Middlebrook 7H10 agar, 21 days, read-out: MIC50) of the same compound?
Answer: 16 µg/mL (≈ 47.4 µM)

Question: And the MIC90 ([8]; Mycobacterium avium, 504 h, Middlebrook 7H10 agar, 21 days, read-out: MIC90)?
Answer: 64 µg/mL (≈ 190 µM)

Question: What about the MIC90 [9] of the same compound?
Answer: 2 to 4 µg/mL

Question: What about the MIC [10] of the same compound?
Answer: 2 µg/mL (≈ 5.93 µM)

Question: And the MIC [11]?
Answer: 1 µg/mL (≈ 2.96 µM)

Question: And the MIC ([12]; Parvimonas micra, read-out: MIC Peptostreptococcus micros)?
Answer: 0.5 µg/mL (≈ 1.48 µM)

Question: What about the “MIC Peptostreptococcus micros” value [12] of the same compound?
Answer: 1 µg/mL (≈ 2.96 µM)
